Assay results taken from US20240156790A1, “COMPOUNDS, COMPOSITIONS, AND METHODS FOR MODULATING FERROPTOSIS AND TREATING EXCITOTOXIC DISORDERS” (THE TRUSTEES OF COLUMBIA UNIVERSITY IN THE CITY OF NEW YORK, priority 2018, published 2024).

How the values were obtained:
[1] = Mouse; value marked ^1, Hofmans et al., 2016; cited from earlier work
[2] = Plasma stability, rat (Table 1); assay type: in vitro ADME
[3] = TH-2-31 IP PK Study, 40 mg/kg; assay type: in vivo, C57BL/6 mice; conditions: 40 mg/kg IP, up to eight hours
Method: C57BL/6 mice (8-weeks of age and ˜25 g weight) were weighed before injection and divided into groups of 2 male and female mice per cage. TH-2-31 was dissolved in 5% DMSO/95% of 65% v/v of 25% w/v 2-hydroxypropyl-3-cyclodextrin (Cayman Chemical) dissolved in 20% EtOH, 30% v/v Poly(ethylene glycol)-400 (Sigma Aldrich 202398), 5% v/v Tween 80 (Fluka 59924) to create a 4 mg/mL solution. The same formulation without TH-2-31 was used as a vehicle control. The solution was sterilized using a […] Steriflip filter unit (Thomas Scientific 1189Q46). Mice were dosed IP and euthanized by CO2 asphyxiation for 3 min at 0, 1, 2, 4, and 8 h after administration. To ensure that the vehicle was well-tolerated 4 mice were treated with vehicle and euthanized 4 h after administration. ˜0.5 mL of blood was collected via cardiac puncture and immediately put in K3 EDTA microtubes ([…] 41.1504.105) and kept on ice. Organs were harvested, placed in Eppendorf tubes, and frozen on dry ice. Blood samples were centrifuged for 10 min at 2,100×g at 4° C., then plasma was transferred to a clean tube and frozen on dry ice. […] After drying, the samples were resuspended in 100 μL of methanol and analyzed by UPLC-MS described below. The concentration of TH-2-31 was determined against a standard curve with a linear fit and the data plot in GraphPad Prism 9 and fit with a one phase decay. […]

Compound | Microsomal Stability t1/2 [1] [min] | Plasma Stability at six hours (% remaining) [2] | accumulation in plasma and brain, in words [3]
CCOC(=O)c1ccc(NC2CCCCC2)c(N)c1 [Fer-1, Ferrostatin-1, reference compound] | 1.9 ± 0.6 | 0-4% | –
Cc1noc(-c2cnc(NC3CCCCC3)c(NC3CCCCC3)c2)n1 [TH-2-31, N^2,N^3-dicyclohexyl-5-(3-methyl-1,2,4-oxadiazol-5-yl)pyridine-2,3-diamine] | – | – | stably accumulate at micromolar concentrations in plasma and brain even eight hours after
